pEC50, pIC50: −log10 of the molar value. Where two headings read alike, the source gives them in different places.

This is an account of results in US7491819B1 (priority 2004, dated 2009).

In assay [1] the target is T1, HIV-integrase (Human immunodeficiency virus type 1 group M subtype B, UniProt P12497).
T1 construct: Recombinant integrase (0.26 ng) was incubated with the beads
Briefly: HIV-Integrase Inhibition Activity (SPA bead strand-transfer assay). The class given is biochemical. In short, it runs like this:
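Strand-transfer read-out: CPM from P33-labelled target DNA (0.1 fmol) joined to bead-bound biotin substrate DNA (5 pmole), with EDTA stop at 10 mM final. Integrase (0.26 ng) prebound to streptavidin SPA beads 90 min, 37° C, and washed before adding inhibitor.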

Assay [2] has as its system NL-Rluc virus. Nature of the assay: Inhibition of HIV replication (recombinant NL-Rluc virus, luciferase). The class given is cell-based.
[3] abbreviates: Table 2a, read-out: HIV-Integrase Inhibition Activity.
Where [4] appears, read: Human immunodeficiency virus 1, read-out: Inhibition of HIV replication.
Setting [5] is: Human immunodeficiency virus 1, Table 2, serum condition not stated (10% FBS, 15 mg/ml human serum albumin/10% FBS or 40% human serum/5% FBS), at least 2 experiments, read-out: Activity (inhibition of HIV replication, EC50 class).

On to `CC1(C)OCCCn2c1nc(C(=O)NCc1ccc(F)cc1N1CCOC1=O)c(O)c2=O` [Example 304, 6H-Pyrimido[2,1-c][1,4]oxazepine-2-carboxamide, N-[[4-fluoro-2-(2-oxo-3-oxazolidinyl)phenyl]methyl]-4,7,8,10-tetrahydro-3-hydroxy-10,10-dimethyl-4-oxo-], for which the pIC50 in assay [1] (setting [3]) is 7.00 to 8.70. For the same compound, in assay [2] (setting [4]), the pEC50 was 7.00 to 8.52.
As for `Cc1nc(C)n(-c2cc(F)ccc2CNC(=O)c2nc3n(c(=O)c2O)CCOC3(C)C)n1` [Example 307, Pyrimido[2,1-c][1,4]oxazine-2-carboxamide, N-[[2-(3,5-dimethyl-1H-1,2,4-triazol-1-yl)-4-fluorophenyl]methyl]-4,6,7,9-tetrahydro-3-hydroxy-9,9-dimethyl-4-oxo-], the pIC50 in assay [1] (setting [3]) was 7.00 to 8.70. Besides, the pEC50 in assay [2] (setting [4]) is 7.00 to 8.52.
For `CC1(C)OCCn2c1nc(C(=O)NCc1ccc(F)cc1-n1cc(CO)nn1)c(O)c2=O` [Example 299, Pyrimido[2,1-c][1,4]oxazine-2-carboxamide, N-[[4-fluoro-2-[4-(hydroxymethyl)-1H-1,2,3-triazol-1-yl]phenyl]methyl]-4,6,7,9-tetrahydro-3-hydroxy-9,9-dimethyl-4-oxo-], in that order: 7.00 to 8.70 and 7.00 to 8.52.
The compound `CN(C)C(=O)Oc1cc(F)ccc1CNC(=O)c1nc2n(c(=O)c1O)CCOC2(C)C` [Example 96, Carbamic acid, dimethyl-, 5-fluoro-2-[[[(4,6,7,9-tetrahydro-3-hydroxy-9,9-dimethyl-4-oxopyrimido[2,1-c][1,4]oxazin-2-yl)carbonyl]amino]methyl]phenyl ester] had a pIC50 in assay [1] of 7.00 to 8.70. Also, the pEC50 in assay [2] (setting [5]) is 7.00 to 8.52.
Regarding `Cc1nnn(-c2cc(F)ccc2CNC(=O)c2nc3n(c(=O)c2O)CCOCC3(C)C)c1C` [Example 302, 4H-Pyrimido[1,2-d][1,4]oxazepine-2-carboxamide, N-[[2-(4,5-dimethyl-1H-1,2,3-triazol-1-yl)-4-fluorophenyl]methyl]-6,7,9,10-tetrahydro-3-hydroxy-10,10-dimethyl-4-oxo-], the pIC50 in assay [1] (setting [3]) is 7.00 to 8.70. The pEC50 in assay [2] (setting [4]) is 7.00 to 8.52.
As to `CC(C)(C)c1cn(-c2cc(F)ccc2CNC(=O)c2nc3n(c(=O)c2O)CCCOC3(C)C)nn1` [Example 301, 6H-Pyrimido[2,1-c][1,4]oxazepine-2-carboxamide, N-[[2-[4-(1,1-dimethylethyl)-1H-1,2,3-triazol-1-yl]-4-fluorophenyl]methyl]-4,7,8,10-tetrahydro-3-hydroxy-10,10-dimethyl-4-oxo-], in assay [1] (setting [3]), the pIC50 is 7.00 to 8.70. The pEC50 in assay [2] (setting [4]) was 7.00 to 8.52.
For the compound `CC1(C)OCCn2c1nc(C(=O)NCc1ccc(F)cc1-n1ccnn1)c(O)c2=O` [Example 295, Pyrimido[2,1-c][1,4]oxazine-2-carboxamide, N-[[4-fluoro-2-(1H-1,2,3-triazol-1-yl)phenyl]methyl]-4,6,7,9-tetrahydro-3-hydroxy-9,9-dimethyl-4-oxo-], in assay [1] (setting [3]), the pIC50 was 7.00 to 8.70. Also, the pEC50 in assay [2] (setting [4]) was 7.00 to 8.52.
With `CCSc1cc(F)ccc1CNC(=O)c1nc2n(c(=O)c1O)CCOC2(C)C` [Example 311, Pyrimido[2,1-c][1,4]oxazine-2-carboxamide, N-[[2-(ethylthio)-4-fluorophenyl]methyl]-4,6,7,9-tetrahydro-3-hydroxy-9,9-dimethyl-4-oxo-], the pIC50 in assay [1] (setting [3]) is 7.00 to 8.70. In addition, the pEC50 in assay [2] (setting [4]) is 7.00 to 8.52.
For `COP(=O)(OC)c1cc(F)ccc1CNC(=O)c1nc2n(c(=O)c1O)CCCOC2(C)C` [Example 318, Phosphonic acid, [5-fluoro-2-[[[(4,7,8,10-tetrahydro-3-hydroxy-10,10-dimethyl-4-oxo-6H-pyrimido[2,1-c][1,4]oxazepin-2-yl)carbonyl]amino]methyl]phenyl]-, dimethyl ester], the pIC50 in assay [1] (setting [3]) is 7.00 to 8.70. The pEC50 in assay [2] (setting [4]) is 7.00 to 8.52.
As to `CC1(C)OCCCn2c1nc(C(=O)NCc1ccc(F)cc1-n1ccnn1)c(O)c2=O` [Example 300, 6H-Pyrimido[2,1-c][1,4]oxazepine-2-carboxamide, N-[[4-fluoro-2-(1H-1,2,3-triazol-1-yl)phenyl]methyl]-4,7,8,10-tetrahydro-3-hydroxy-10,10-dimethyl-4-oxo-], the pIC50 in assay [1] (setting [3]) is 7.00 to 8.70. Also, the pEC50 in assay [2] (setting [4]) was 7.00 to 8.52.
For `CC1(C)OCCn2c1nc(C(=O)NCc1ccc(F)cc1P(=O)(OCCO)OCCO)c(O)c2=O` [Example 293, Phosphonic acid, [5-fluoro-2-[[[(4,6,7,9-tetrahydro-3-hydroxy-9,9-dimethyl-4-oxopyrimido[2,1-c][1,4]oxazin-2-yl)carbonyl]amino]methyl]phenyl]-, bis(2-hydroxyethyl) ester], in that order: 7.00 to 8.70 and 6.00 to 7.00.
On to `Cc1nncn1-c1cc(F)ccc1CNC(=O)c1nc2n(c(=O)c1O)CCOC2(C)C` [Example 303, Pyrimido[2,1-c][1,4]oxazine-2-carboxamide, N-[[4-fluoro-2-(3-methyl-4H-1,2,4-triazol-4-yl)phenyl]methyl]-4,6,7,9-tetrahydro-3-hydroxy-9,9-dimethyl-4-oxo-], for which, in assay [1] (setting [3]), the pIC50 was 6.00 to 7.00. The pEC50 in assay [2] (setting [4]) was less than 6.00.
Consider `CC(C)(C)c1cn(-c2cc(F)ccc2CNC(=O)c2nc3n(c(=O)c2O)CCOC3(C)C)nn1` [Example 297, Pyrimido[2,1-c][1,4]oxazine-2-carboxamide, N-[[2-[4-(1,1-dimethylethyl)-1H-1,2,3-triazol-1-yl]-4-fluorophenyl]methyl]-4,6,7,9-tetrahydro-3-hydroxy-9,9-dimethyl-4-oxo-], for which the pIC50 in assay [1] (setting [3]) is 7.00 to 8.70. Further, in assay [2] (setting [4]), the pEC50 was 7.00 to 8.52.
Regarding `CC1(C)OCCn2c1nc(C(=O)NCc1ccc(F)cc1OC(=O)N1CCOCC1)c(O)c2=O` [Example 99, 4-Morpholinecarboxylic acid, 5-fluoro-2-[[[(4,6,7,9-tetrahydro-3-hydroxy-9,9-dimethyl-4-oxopyrimido[2,1-c][1,4]oxazin-2-yl)carbonyl]amino]methyl]phenyl ester], the pIC50 in assay [1] was 7.00 to 8.70. Further, in assay [2] (setting [5]), the pEC50 is 7.00 to 8.52.
`COP(=O)(O)c1cc(F)ccc1CNC(=O)c1nc2n(c(=O)c1O)CCOC2(C)C` [Example 290, Phosphonic acid, [5-fluoro-2-[[[(4,6,7,9-tetrahydro-3-hydroxy-9,9-dimethyl-4-oxopyrimido[2,1-c][1,4]oxazin-2-yl)carbonyl]amino]methyl]phenyl]-, monomethyl ester]: the pIC50 in assay [1] (setting [3]) is 7.00 to 8.70. The pEC50 in assay [2] (setting [4]) is 6.00 to 7.00.
For `CCC1(C)OCCn2c1nc(C(=O)NCc1ccc(F)cc1S(C)(=O)=O)c(O)c2=O` (stereo not shown) [Example 314, Pyrimido[2,1-c][1,4]oxazine-2-carboxamide, 9-ethyl-N-[[4-fluoro-2-(methylsulfonyl)phenyl]methyl]-4,6,7,9-tetrahydro-3-hydroxy-9-methyl-4-oxo-], the pIC50 in assay [1] (setting [3]) was 7.00 to 8.70. Further, in assay [2] (setting [4]), the pEC50 is 7.00 to 8.52.
`CC1(C)COP(=O)(c2cc(F)ccc2CNC(=O)c2nc3n(c(=O)c2O)CCOC3(C)C)OC1` [Example 294, Pyrimido[2,1-c][1,4]oxazine-2-carboxamide, N-[[2-(5,5-dimethyl-2-oxido-1,3,2-dioxaphosphorinan-2-yl)-4-fluorophenyl]methyl]-4,6,7,9-tetrahydro-3-hydroxy-9,9-dimethyl-4-oxo-]: the pIC50 in assay [1] (setting [3]) is 7.00 to 8.70. Moreover, the pEC50 in assay [2] (setting [4]) was 7.00 to 8.52.
For `Cc1ncn(-c2cc(F)ccc2CNC(=O)c2nc3n(c(=O)c2O)CCCOC3(C)C)n1` [Example 317, 6H-Pyrimido[2,1-c][1,4]oxazepine-2-carboxamide, N-[[4-fluoro-2-(3-methyl-1H-1,2,4-triazol-1-yl)phenyl]methyl]-4,7,8,10-tetrahydro-3-hydroxy-10,10-dimethyl-4-oxo-] the same measures were 7.00 to 8.70 and 7.00 to 8.52.
For the compound `CC(=O)OCCS(=O)(=O)c1cc(F)ccc1CNC(=O)c1nc2n(c(=O)c1O)CCOC2(C)C` [Example 310, Pyrimido[2,1-c][1,4]oxazine-2-carboxamide, N-[[2-[[2-(acetyloxy)ethyl]sulfonyl]-4-fluorophenyl]methyl]-4,6,7,9-tetrahydro-3-hydroxy-9,9-dimethyl-4-oxo-], the pIC50 in assay [1] (setting [3]) is 7.00 to 8.70. The pEC50 in assay [2] (setting [4]) is 7.00 to 8.52.
Consider `CCS(=O)(=O)Nc1cc(F)ccc1CNC(=O)c1nc2n(c(=O)c1O)CCOC2(C)C` [Example 305, Pyrimido[2,1-c][1,4]oxazine-2-carboxamide, N-[[2-[(ethylsulfonyl)amino]-4-fluorophenyl]methyl]-4,6,7,9-tetrahydro-3-hydroxy-9,9-dimethyl-4-oxo-], for which, in assay [1] (setting [3]), the pIC50 was 7.00 to 8.70. Further, the pEC50 in assay [2] (setting [4]) was 7.00 to 8.52.
For the compound `CC1(C)OCCn2c1nc(C(=O)NCc1cccc(C3(C(F)(F)F)NN3)c1)c(O)c2=O` [Example 104, Pyrimido[2,1-c][1,4]oxazine-2-carboxamide, 4,6,7,9-tetrahydro-3-hydroxy-9,9-dimethyl-4-oxo-N-[[3-[3-(trifluoromethyl)-3-diaziridinyl]-phenyl]-methyl]-], the pIC50 in assay [1] is 6.00 to 7.00. In addition, the pEC50 in assay [2] (setting [5]) was 6.00 to 7.00.
Consider `Cc1ncnn1-c1cc(F)ccc1CNC(=O)c1nc2n(c(=O)c1O)CCCOC2(C)C` [Example 316, 6H-Pyrimido[2,1-c][1,4]oxazepine-2-carboxamide, N-[[4-fluoro-2-(5-methyl-1H-1,2,4-triazol-1-yl)phenyl]methyl]-4,7,8,10-tetrahydro-3-hydroxy-10,10-dimethyl-4-oxo-], for which the pIC50 in assay [1] (setting [3]) is 7.00 to 8.70. In assay [2] (setting [4]), the pEC50 is 7.00 to 8.52.
As for `Cc1nc(C)n(-c2cc(F)ccc2CNC(=O)c2nc3n(c(=O)c2O)CCCOC3(C)C)n1` [Example 319, 6H-Pyrimido[2,1-c][1,4]oxazepine-2-carboxamide, N-[[2-(3,5-dimethyl-1H-1,2,4-triazol-1-yl)-4-fluorophenyl]methyl]-4,7,8,10-tetrahydro-3-hydroxy-10,10-dimethyl-4-oxo-], the pIC50 in assay [1] (setting [3]) is 7.00 to 8.70. The pEC50 in assay [2] (setting [4]) is 7.00 to 8.52.
